The target of the assay is T1, human vasopressin V1b receptor (Homo sapiens, UniProt P47901).
T1 construct: expressed in transfected cells; host or cells: CHO-K1 (cell line hV1b-3H2_CHO), membrane preparation
T1 sequence (P47901 1-424): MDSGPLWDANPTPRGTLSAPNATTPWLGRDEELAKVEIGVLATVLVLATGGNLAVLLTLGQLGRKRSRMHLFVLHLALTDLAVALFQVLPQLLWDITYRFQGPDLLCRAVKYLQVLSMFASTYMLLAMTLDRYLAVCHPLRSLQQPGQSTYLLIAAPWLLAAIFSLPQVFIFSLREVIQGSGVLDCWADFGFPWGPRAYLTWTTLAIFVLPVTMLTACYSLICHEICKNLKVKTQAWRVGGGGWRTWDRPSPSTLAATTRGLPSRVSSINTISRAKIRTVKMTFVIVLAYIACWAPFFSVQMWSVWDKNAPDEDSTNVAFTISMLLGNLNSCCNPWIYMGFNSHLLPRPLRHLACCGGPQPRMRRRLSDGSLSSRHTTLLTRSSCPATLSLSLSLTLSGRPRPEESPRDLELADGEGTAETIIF
Description: Vasopressin V1b receptor binding assay. The settings on record: membranes from CHO-K1 cells with stably expressed human V1b receptors; displacement of 1.5 nM 3H-AVP; read-out: V1b receptor affinity (affinity constant Ki). In short, it runs like this:
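Ki values come from nonlinear regression of triplicate scintillation counts after filtration. Test compound (2% DMSO in the mixture) and radioligand were incubated 60 min at room temperature with human V1b membranes in pH 7.4 Tris buffer with 10 mM MgCl2 and 0.1% BSA. Nonspecific binding was set with 1 uM AVP.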
As usually defined, the Ki is a dissociation constant, usually derived from enzyme kinetics or from competition with a known ligand. As for `COc1ccc(S(=O)(=O)n2c(=O)n(C(C(=O)N3CCC3)c3ccccc3)c3cc(Cl)ccc32)cc1` (centres unmarked) [Example 84, 3-(2-Azetidin-1-yl-2-oxo-1-phenylethyl)-5-chloro-1-(4-methoxybenzenesulfonyl)-1,3-dihydrobenzimidazol-2-one], the Ki fell in the range of 500 to 10000 nM.
With `COc1ccc(S(=O)(=O)n2c(=O)n(CC(=O)N3CCN(C)CC3)c3cc(Cl)ccc32)cc1` [Example 85, 5-Chloro-1-(4-methoxybenzenesulfonyl)-3-[2-(4-methylpiperazin-1-yl)-2-oxoethyl]-1,3-dihydrobenzimidazol-2-one] the figure was 500 to 10000 nM; with `COc1ccc(S(=O)(=O)n2c(=O)n(CC(=O)N3CCN(C4CCN(C)CC4)CC3)c3cc(Cl)ccc32)cc1` [Example 86, 5-Chloro-1-(4-methoxybenzenesulfonyl)-3-{2-[4-(1-methylpiperidin-4-yl)piperazin-1-yl]-2-oxoethyl}-1,3-dihydrobenzimidazol-2-one], 500 to 10000 nM.
With `COc1ccc(S(=O)(=O)n2c(=O)n(CC(=O)N3CCCCC3)c3cc(Cl)ccc32)cc1` [Example 87, 5-Chloro-1-(4-methoxybenzenesulfonyl)-3-(2-oxo-2-piperidin-1-yl-ethyl)-1,3-dihydrobenzimidazol-2-one] the figure was 500 to 10000 nM; with `COc1ccc(S(=O)(=O)n2c(=O)n(C(C(=O)N3CCC(n4ccnc4)CC3)c3ccccc3)c3cc(Cl)ccc32)cc1` (centres unmarked) [Example 88, 5-Chloro-3-[2-(4-imidazol-1-ylpiperidin-1-yl)-2-oxo-1-phenylethyl]-1-(4-methoxybenzenesulfonyl)-1,3-dihydrobenzimidazol-2-one], 500 to 10000 nM; with `COc1ccc(S(=O)(=O)n2c(=O)n(C(C(=O)N3CCN(c4ncncn4)CC3)c3ccccc3)c3cc(Cl)ccc32)cc1` (centres unmarked) [Example 89, 5-Chloro-1-(4-methoxybenzenesulfonyl)-3-[2-oxo-1-phenyl-2-(4-[1,3,5]triazin-2-ylpiperazin-1-yl)-ethyl]-1,3-dihydrobenzimidazol-2-one], 500 to 10000 nM.
With `COc1ccc(S(=O)(=O)n2c(=O)n(CC(=O)N3CCCC3)c3cc(Cl)ccc32)cc1` [Example 90, 5-Chloro-1-(4-methoxybenzenesulfonyl)-3-(2-oxo-2-pyrrolidin-1-yl-ethyl)-1,3-dihydrobenzimidazol-2-one] the figure was 500 to 10000 nM; with `CCCN1CCN(C2CCN(C(=O)C(c3ccccc3)n3c(=O)n(S(=O)(=O)c4ccc(OC)cc4)c4ccc(Cl)cc43)C2)CC1` (centres unmarked) [Example 91, 5-Chloro-1-(4-methoxybenzenesulfonyl)-3-{2-oxo-1-phenyl-2-[3-(4-propylpiperazin-1-yl)-pyrrolidin-1-yl]ethyl}-1,3-dihydrobenzimidazol-2-one], below 100 nM.
On to `COc1ccc(S(=O)(=O)n2c(=O)n(C(C(=O)N3CCC(c4ccncc4)C3)c3ccccc3)c3cc(Cl)ccc32)cc1` (centres unmarked) [Example 92, 5-Chloro-1-(4-methoxybenzenesulfonyl)-3-[2-oxo-1-phenyl-2-(3-pyridin-4-yl-pyrrolidin-1-yl)ethyl]-1,3-dihydrobenzimidazol-2-one], for which the Ki was in the range of 100 to 500 nM.
As to `COc1ccc(S(=O)(=O)n2c(=O)n(C(C(=O)N3CCCC3C(=O)N(C)C)c3ccccc3)c3cc(Cl)ccc32)cc1` (centres unmarked) [Example 93, 1-{2-[6-Chloro-3-(4-methoxybenzenesulfonyl)-2-oxo-2,3-dihydrobenzimidazol-1-yl]-2-phenylacetyl}pyrrolidine-2-dimethylcarboxamide], the Ki fell in the range of 100 to 500 nM.
With `COc1ccc(S(=O)(=O)n2c(=O)n(C(C(=O)N3CCN(c4cccnc4)CC3)c3ccccc3)c3cc(Cl)ccc32)cc1` (centres unmarked) [Example 94, 5-Chloro-1-(4-methoxybenzenesulfonyl)-3-[2-oxo-1-phenyl-2-(4-pyridin-3-ylpiperazin-1-yl)ethyl]-1,3-dihydrobenzimidazol-2-one] the figure was 500 to 10000 nM; with `COc1ccc(S(=O)(=O)n2c(=O)n(CC(=O)N3CCC(N4CCN(C)CC4)CC3)c3cc(Cl)ccc32)cc1` [Example 95, 5-Chloro-1-(4-methoxybenzenesulfonyl)-3-{2-[4-(4-methylpiperazin-1-yl)piperidin-1-yl]-2-oxo-ethyl}-1,3-dihydrobenzimidazol-2-one], 500 to 10000 nM.
With `COc1ccc(S(=O)(=O)n2c(=O)n(C(C(=O)N3CCN(CC4CCCN(C)C4)CC3)c3ccccc3)c3cc(Cl)ccc32)cc1` (centres unmarked) [Example 96, 5-Chloro-1-(4-methoxybenzenesulfonyl)-3-{2-[4-(1-methylpiperidin-3-ylmethyl)piperazin-1-yl]-2-oxo-1-phenylethyl}-1,3-dihydrobenzimidazol-2-one] the figure was 100 to 500 nM; with `COc1ccc(S(=O)(=O)n2c(=O)n(C(C(=O)N(C)C)c3ccccc3)c3cc(Cl)ccc32)cc1` (centres unmarked) [Example 97, 2-[6-Chloro-3-(4-methoxybenzenesulfonyl)-2-oxo-2,3-dihydrobenzimidazol-1-yl]-N,N-dimethyl-2-phenylacetamide], 500 to 10000 nM; with `COc1ccc(S(=O)(=O)n2c(=O)n(C(C(=O)N3CCN(C)CC3)c3ccccc3)c3cc(Cl)ccc32)cc1` (centres unmarked) [Example 98, 5-Chloro-1-(4-methoxybenzenesulfonyl)-3-[2-(4-methylpiperazin-1-yl)-2-oxo-1-phenylethyl]-1,3-dihydrobenzimidazol-2-one], 500 to 10000 nM.
On to `COc1ccc(S(=O)(=O)n2c(=O)n(C(C(=O)N3CCOCC3)c3ccccc3)c3cc(Cl)ccc32)cc1` (centres unmarked) [Example 99, 5-Chloro-1-(4-methoxybenzenesulfonyl)-3-(2-morpholin-4-yl-2-oxo-1-phenylethyl)-1,3-dihydrobenzimidazol-2-one], for which the Ki was 500 to 10000 nM.
For `COc1ccc(S(=O)(=O)n2c(=O)n(C(C(=O)NCc3ccccc3)c3ccccc3)c3cc(Cl)ccc32)cc1` (centres unmarked) [Example 100, N-Benzyl-2-[6-chloro-3-(4-methoxybenzenesulfonyl)-2-oxo-2,3-dihydrobenzimidazol-1-yl]-2-phenylacetamide] the value was 500 to 10000 nM; for `COc1ccc(S(=O)(=O)n2c(=O)n(C(C(=O)N3CCCCC3)c3ccccc3)c3cc(Cl)ccc32)cc1` (centres unmarked) [Example 101, 5-Chloro-1-(4-methoxybenzenesulfonyl)-3-(2-oxo-1-phenyl-2-piperidin-1-ylethyl)-1,3-dihydrobenzimidazol-2-one], 500 to 10000 nM; for `COc1ccc(S(=O)(=O)n2c(=O)n(C(C(=O)N3CCCC3)c3ccccc3)c3cc(Cl)ccc32)cc1` (centres unmarked) [Example 102, 5-Chloro-1-(4-methoxybenzenesulfonyl)-3-(2-oxo-1-phenyl-2-pyrrolidin-1-ylethyl)-1,3-dihydrobenzimidazol-2-one], 100 to 500 nM.
With `COc1ccc(S(=O)(=O)n2c(=O)n(C(C(=O)Nc3ccccc3)c3ccccc3)c3cc(Cl)ccc32)cc1` (centres unmarked) [Example 103, 2-[6-Chloro-3-(4-methoxybenzenesulfonyl)-2-oxo-2,3-dihydrobenzimidazol-1-yl]-2,N-diphenylacetamide] the figure was 500 to 10000 nM; with `CCN(CC)C(=O)C(c1ccccc1)n1c(=O)n(S(=O)(=O)c2ccc(OC)cc2)c2ccc(Cl)cc21` (centres unmarked) [Example 104, 2-[6-Chloro-3-(4-methoxybenzenesulfonyl)-2-oxo-2,3-dihydrobenzimidazol-1-yl]-N,N-diethyl-2-phenylacetamide], 500 to 10000 nM.
Consider `COc1ccc(S(=O)(=O)n2c(=O)n(C(C(=O)N3CCN(c4ccccc4)CC3)c3ccccc3)c3cc(Cl)ccc32)cc1` (centres unmarked) [Example 105, 5-Chloro-1-(4-methoxybenzenesulfonyl)-3-[2-oxo-1-phenyl-2-(4-phenylpiperazin-1-yl)ethyl]-1,3-dihydrobenzimidazol-2-one], for which the Ki lay in the range of 500 to 10000 nM.
With `COc1ccc(S(=O)(=O)n2c(=O)n(C(C(=O)N(C)CCN(C)C)c3ccccc3)c3cc(Cl)ccc32)cc1` (centres unmarked) [Example 106, 2-[6-Chloro-3-(4-methoxybenzenesulfonyl)-2-oxo-2,3-dihydrobenzimidazol-1-yl]-N-(2-dimethylaminoethyl)-N-methyl-2-phenylacetamide] the figure was below 100 nM; with `CCCN1CCN(C2CCN(C(=O)C(c3ccccc3)n3c(=O)n(S(=O)(=O)c4ccc(OC)cc4)c4ccccc43)C2)CC1` (centres unmarked) [Example 107, 1-(4-Methoxybenzenesulfonyl)-3-{2-oxo-1-phenyl-2-[3-(4-propylpiperazin-1-yl)-pyrrolidin-1-yl]ethyl}-1,3-dihydrobenzimidazol-2-one], below 100 nM.
With `CCCN1CCN(C2CCN(C(=O)Cn3c(=O)n(S(=O)(=O)c4ccc(OC)cc4)c4ccc(Cl)cc43)C2)CC1` (centres unmarked) [Example 108, 5-Chloro-1-(4-methoxybenzenesulfonyl)-3-{2-oxo-2-[3-(4-propylpiperazin-1-yl)-pyrrolidin-1-yl]-ethyl}-1,3-dihydrobenzimidazol-2-one] the figure was 500 to 10000 nM.
With `COc1ccc(S(=O)(=O)n2c(=O)n(C(C(=O)N3CCC[C@H]3c3ncon3)c3ccccc3)c3cc(Cl)ccc32)cc1` (stereo partly drawn) [Example 110, 5-Chloro-1-(4-methoxybenzenesulfonyl)-3-[2-((S)-2-[1,2,4]oxadiazol-3-ylpyrrolidin-1-yl)-2-oxo-1-phenylethyl]-1,3-dihydrobenzimidazol-2-one] the figure was 100 to 500 nM.

Source of the values: patent US8791148B2, “Substituted benzimidazolone derivatives, medicaments comprising them and their use” (AbbVie Deutschland GmbH & Co. KG, priority 2006, dated 2014).
